Values quoted from earlier work in US12251425B2, “Sustained-release lipid preformulation and pharmaceutical composition for sustained-release injection in form of lipid solution containing same” (IMDPHARM INC., priority 2019, dated 2025).

Settings: 25° C.

viscosity: about 1000 mPa·s
Substance: sorbitan monooleate
